Test results reported in patent publication US20190054194A1, “System and Method For Evaluation of Subjects Using Magnetic Resonance Imaging and Oxygen-17” (Case Western Reserve University, priority 2017, published 2019).

Experiment: dynamic golden-angle 17O-MRI of H2^17O uptake and washout in brain after intravenous bolus injection (control and glioblastoma mice)
Type: in vivo
Excerpt: In one configuration, tumor and brain may be differentiated with the present methods, such as to assess the presence of a glioblastoma. […] For example, the method may allow for differentiation between subjects with a moderate tumor volume (<30%, GBM-M) and those with a large tumor volume (>30%, GBM-L). Once image reconstruction has been completed, ^17O images may be coregistered with the T2-weighted ^1H images. Tumor areas may show higher signal intensity in T2-weighted ^1H images due to having a longer T2 than normal brain tissue. Appropriate regions of interest (ROIs) that encompass the tumor and normal brain tissue may be drawn manually from T2-weighted ^1H images, or automatic segmentation routines may be used to define the ROIs. Total tumor and brain volumes may be calculated by adding the tumor and brain areas in all of the image slices. The percentage of tumor volume may then be calculated as the tumor volume divided by total brain volume.
^17O signal may be normalized by the corresponding natural abundance ^17O signal acquired before H2^17O injection or administration. Peak H2^17O uptake may be identified as the maximal signal intensity following H2^17O administration. A normalized time course of the ^17O signal from peak uptake to the end of the measurement may be fit to a monoexponential function in a pixel-wise fashion to generate the maps of peak and steady-state H2^17O uptake, as well as its washout rate. Mean values for each ROI may be calculated for each map. In tissue with no obvious washout phase or even continued accumulation of H2^17O after the injection, washout rate may be set to zero, while peak and steady-state H2^17O uptake may be calculated as the normalized ^17O signals immediately after H2^17O injection and at the end of measurement, respectively.

[1] = GBM-L mice (large tumor volume >30%)

[17OH2] [H2^17O, ^17O-labeled water]
H2^17O uptake in normal brain tissue [1]: significantly reduced H2^17O uptake
H2^17O washout in normal brain tissue [1]: prolonged washout
H2^17O washout in tumors [1]: no obvious washout phase, or even continuous accumulation of H2^17O after injection
H2^17O uptake in tumors (GBM-M mice (moderate tumor volume <30%)): reduced H2^17O uptake
H2^17O uptake and washout (17O signal kinetics) in brain (control mice, after H2^17O injection): rapid uptake and washout
